In PubChem BioAssay (NCI):
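Dose response: 5 concentrations. Exposure: 48 h. Format: 96-well plates. Endpoint: linear interpolation; highest concentration if not reached. Definition used: TGI = concentration required for complete inhibition of growth.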

Key:
Experiment in all cases: growth of human tumour cells (NCI), 48 h
SN12C renal = system: SN12C renal
SR leukemia = system: SR leukemia
COLO 205 colon = system: COLO 205 colon
HT29 colon = system: HT29 colon
M14 melanoma = system: M14 melanoma
SNB-19 CNS = system: SNB-19 CNS
DLD-1 colon = system: DLD-1 colon
HOP-18 NSCLC = system: HOP-18 NSCLC
RPMI-8226 leukemia = system: RPMI-8226 leukemia
ACHN renal = system: ACHN renal
HOP-62 NSCLC = system: HOP-62 NSCLC
CCRF-CEM leukemia = system: CCRF-CEM leukemia
UO-31 renal = system: UO-31 renal
MOLT-4 leukemia = system: MOLT-4 leukemia
HCC-2998 colon = system: HCC-2998 colon
NCI-H226 lung = system: NCI-H226 lung
M19-MEL melanoma = system: M19-MEL melanoma
TK-10 renal = system: TK-10 renal
SK-MEL-5 melanoma = system: SK-MEL-5 melanoma
MALME-3M melanoma = system: MALME-3M melanoma
LOX IMVI melanoma = system: LOX IMVI melanoma
KM12 colon = system: KM12 colon
SK-OV-3 ovarian = system: SK-OV-3 ovarian
DMS 114 small cell lung = system: DMS 114 small cell lung
OVCAR-5 ovarian = system: OVCAR-5 ovarian
HL-60(TB) leukemia = system: HL-60(TB) leukemia
786-0 renal = system: 786-0 renal
SF-295 CNS = system: SF-295 CNS
OVCAR-4 ovarian = system: OVCAR-4 ovarian
XF 498 CNS = system: XF 498 CNS
SW-620 colon = system: SW-620 colon
SNB-75 CNS = system: SNB-75 CNS
RXF 393 renal = system: RXF 393 renal
UACC-62 melanoma = system: UACC-62 melanoma
UACC-257 melanoma = system: UACC-257 melanoma
SK-MEL-2 melanoma = system: SK-MEL-2 melanoma
HCT-15 colon = system: HCT-15 colon
SF-268 CNS = system: SF-268 CNS
A549 NSCLC = system: A549 NSCLC
NCI-H522 lung = system: NCI-H522 lung
IGROV1 ovarian = system: IGROV1 ovarian
DMS 273 small cell lung = system: DMS 273 small cell lung
NCI-H460 lung = system: NCI-H460 lung
HCT-116 colon = system: HCT-116 colon
LXFL 529 NSCLC = system: LXFL 529 NSCLC
NCI-H23 lung = system: NCI-H23 lung
OVCAR-3 ovarian = system: OVCAR-3 ovarian
SNB-78 CNS = system: SNB-78 CNS
SK-MEL-28 melanoma = system: SK-MEL-28 melanoma
EKVX NSCLC = system: EKVX NSCLC
U251 CNS = system: U251 CNS
K-562 leukemia = system: K-562 leukemia
KM20L2 colon = system: KM20L2 colon
CAKI-1 renal = system: CAKI-1 renal
OVCAR-8 ovarian = system: OVCAR-8 ovarian

O=C(Cc1ccccc1)NN1C(=O)C(Cl)C1c1cc(Br)ccc1O (stereo not given)
TGI (SN12C renal): > 100 µM | TGI (SR leukemia): > 100 µM | TGI (COLO 205 colon): > 100 µM | TGI (HT29 colon): > 100 µM | TGI (M14 melanoma): 19 µM | TGI (SNB-19 CNS): 47.9 µM | TGI (DLD-1 colon): > 100 µM | TGI (HOP-18 NSCLC): > 100 µM | TGI (RPMI-8226 leukemia): > 100 µM | TGI (ACHN renal): > 100 µM | TGI (HOP-62 NSCLC): 52.9 µM | TGI (CCRF-CEM leukemia): > 100 µM | TGI (UO-31 renal): 46.8 µM | TGI (MOLT-4 leukemia): 8.07 µM | TGI (HCC-2998 colon): > 100 µM | TGI (NCI-H226 lung): 69.7 µM | TGI (M19-MEL melanoma): 23.3 µM | TGI (TK-10 renal): > 100 µM | TGI (SK-MEL-5 melanoma): > 100 µM | TGI (MALME-3M melanoma): > 100 µM | TGI (LOX IMVI melanoma): > 100 µM | TGI (KM12 colon): > 100 µM | TGI (SK-OV-3 ovarian): 39 µM | TGI (DMS 114 small cell lung): 8.77 µM | TGI (OVCAR-5 ovarian): > 100 µM | TGI (HL-60(TB) leukemia): 13.6 µM | TGI (786-0 renal): > 100 µM | TGI (SF-295 CNS): 94.3 µM | TGI (OVCAR-4 ovarian): > 100 µM | TGI (XF 498 CNS): > 100 µM | TGI (SW-620 colon): > 100 µM | TGI (SNB-75 CNS): 34.4 µM | TGI (RXF 393 renal): > 100 µM | TGI (UACC-62 melanoma): 30.7 µM | TGI (UACC-257 melanoma): > 100 µM | TGI (SK-MEL-2 melanoma): > 100 µM | TGI (HCT-15 colon): > 100 µM | TGI (SF-268 CNS): 50 µM | TGI (A549 NSCLC): > 100 µM | TGI (NCI-H522 lung): > 100 µM | TGI (IGROV1 ovarian): > 100 µM | TGI (DMS 273 small cell lung): > 100 µM | TGI (NCI-H460 lung): > 100 µM | TGI (HCT-116 colon): > 100 µM | TGI (LXFL 529 NSCLC): > 100 µM | TGI (NCI-H23 lung): 53.3 µM | TGI (OVCAR-3 ovarian): > 100 µM | TGI (SNB-78 CNS): 91.8 µM | TGI (SK-MEL-28 melanoma): > 100 µM | TGI (EKVX NSCLC): 23.9 µM | TGI (U251 CNS): 32.6 µM | TGI (K-562 leukemia): 42.7 µM | TGI (KM20L2 colon): > 100 µM | TGI (CAKI-1 renal): 60.7 µM | TGI (OVCAR-8 ovarian): 69.2 µM
